According to the NIST ThermoML archive (doi:10.1021/je200820v):

What was measured:
[1] = excess molar enthalpy (molar enthalpy of mixing); xn = mol fraction of the nth substance listed; conditions: 303.15 K, 101 kPa, Liquid, Calvet calorimetry
[2] = Liquid, Closed cell (Static) method

CCN(CC)CCN [N,N-diethylethane-1,2-diamine] + CCCCCCC
[1]
Conditions	excess molar enthalpy [kcal/mol]
x1 = 0.0612	0.0679
x1 = 0.1118	0.115
x1 = 0.1488	0.143
x1 = 0.2038	0.179
x1 = 0.2452	0.201
x1 = 0.3051	0.222
x1 = 0.4078	0.24
x1 = 0.5068	0.239
x1 = 0.6156	0.216
x1 = 0.7084	0.183
x1 = 0.7471	0.164
x1 = 0.8058	0.135
x1 = 0.8841	0.0866

CCN(CC)CCN [N,N-diethylethane-1,2-diamine]
[2]
Conditions	vapor or sublimation pressure [kPa]
273.15 K	0.1291
293.15 K	0.5288
298.15 K	0.7256
303.15 K	0.9831
313.15 K	1.741
323.15 K	2.957
333.15 K	4.833
343.15 K	7.634
353.15 K	11.7
363.15 K	17.43

CCCCCCC [heptane]
[2]
Conditions	vapor or sublimation pressure [kPa]
273.15 K	1.536
293.15 K	4.76
298.15 K	6.135
303.15 K	7.829
313.15 K	12.39
323.15 K	18.96
333.15 K	28.14
343.15 K	40.64
353.15 K	57.27
363.15 K	78.94
